Results published in patent US20220193029A1, “BRYOSTATIN COMPOUNDS FOR ENHANCEMENT OF IMMUNOTHERAPY” (priority 2019, published 2022).

Legend:
PKCδ = biological target: T1, PKCδ (Homo sapiens, UniProt Q05655); assay: cell-free competitive PKC binding assay with [3H]-phorbol dibutyrate; settings: competition with [3H]-PDBu, recombinant human PKC isoform
T1 construct: purchased Invitrogen
Method: (§1) Because a prerequisite for PKC pathway involvement is binding to PKC, compounds were initially evaluated for PKC affinity in a cell-free competitive binding assay with tritiated phorbol dibutyrate ([^3H]-PDBu). Assays were performed with representative members of both the conventional (PKCα) and novel (PKCδ) PKC families. Subsequently, compounds were assayed for PKC activation in living cells using an isoform translocation assay.
(§2) To a 50 mL polypropylene tube was added Tris-HCl (pH 7.4, 1 M, 1 mL), KCl (1 M, 2 mL), CaCl2) (0.1 M, 30 μL), and bovine serum albumin (BSA, 40 mg, Sigma-Aldrich). This mixture was diluted to 20 mL with deionized H2O and mixed gently. The buffer was stored on ice until use.
(§3) For every two assays, 3.5 mg phosphatidylserine (Avanti Polar Lipids, porcine, 25 mg/mL CHCl3 solution) was concentrated by removing chloroform under a stream of nitrogen followed by reduced pressure. The solid PS was suspended as vesicles in freshly prepared PKC binding assay buffer (3.5 mL) by sonicating six times for 30 sec, with a 30 sec rest between sonications (Branson Sonifier 250, power=2, 50% duty cycle). The resulting milky cloudy mixture (1 mg/mL) was stored on ice until use.
(§4) Assay PKC was prepared by dissolving a 4 μg aliquot of the indicated recombinant human PKC isoform (Invitrogen) into 11.6 mL of PKC binding assay buffer (this amount is sufficient for two assays). The diluted PKC was stored on ice for immediate use.
(§5) ^3H-PDBu (American Radiolabeled Chemicals, Inc.; 1 mCi/mL acetone solution; specific activity: 20 Ci/mmol) was diluted […] with DMSO. The resulting 500 nM stock solution was further diluted with DMSO to 30 nM.
(§6) Compound dilutions were prepared by serially diluting from a chosen “high” concentration by factors of 3 or 4.
(§7) To a polypropylene tube was added 3.3 mL of 1 mg/mL PS vesicles solution, 11 mL of PKC isoform solution, and 1.1 mL of 30 nM ^3H-PDBu solution were added. The resulting solution was vortexed to mix and stored on ice.
(§8) Materials: • Glass-fiber filters (Whatman GF/B) were prepared by soaking them in a solution of aqueous polyethyleneimine (10% by vol, 18 mL) in deionized water (600 mL) for ≥1 h. • 500 mL “rinsing buffer” of 20 mM Tris, pH 7.4 was cooled on ice for the duration of the incubation period and for the remainder of the assay.
Triplicate data points were obtained for each analog concentration. For each data point, 280 μL of “Master Mix” Solution and 20 μL of analog compound at a specified concentration were added to a polypropylene tube. […] Maximal ^3H-PDBu binding was assessed in triplicate by substitution of the analog compound with 20 μL DMSO. The solutions were vortexed to mix, incubated at 37° C. for 10 min, and incubated on ice for at least 30 min prior to filtration. Using a Brandel Harvester, the assay contents from each polypropylene tube were vacuum-filtered through polyethylenimine-soaked filters, washing with rinsing buffer (3×) and drying first under vacuum for 5 min and then under ambient conditions for ≥2 h. The resulting filters had circular perforations for each data point, which were removed with forceps and placed in a scintillation vial. Scintillation vials were filled with Bio-Safe II scintillation fluid (5 mL) and measured for radioactivity using a Beckman LS 6000SC scintillation counter. Counts per minute (cpm) were averaged for each triplicate dilution. The data were plotted—cpm vs. log(concentration)—using Prism® by GraphPad Software and an IC50 was determined using that program's built-in one-site competition least squares regression function. […] The Kd of ^3H-PDBu for PKC isoforms was measured separately via saturation binding experiments under identical conditions.

PKCα = biological target: T2, PKCα (Homo sapiens, UniProt P17252); assay: as above; settings: competition with [3H]-PDBu, recombinant human PKC isoform
T2 construct: purchased Invitrogen
Method: as §1, §2, §3, §4, §5, §6, §7, §8
(§9) Triplicate data points were obtained for each analog concentration. For each data point, 280 μL of “Master Mix” Solution and 20 μL of analog compound at a specified concentration were added to a polypropylene tube. […] Maximal ^3H-PDBu binding was assessed in triplicate by substitution of the analog compound with 20 μL DMSO. The solutions were vortexed to mix, incubated at 37° C. for 10 min, and incubated on ice for at least 30 min prior to filtration. Using a Brandel Harvester, the assay contents from each polypropylene tube were vacuum-filtered through polyethylenimine-soaked filters, washing with rinsing buffer (3×) and drying first under vacuum for 5 min and then under ambient conditions for ≥2 h. The resulting filters had circular perforations for each data point, which were removed with forceps and placed in a scintillation vial. Scintillation vials were filled with Bio-Safe II scintillation fluid (5 mL) and measured for radioactivity using a Beckman LS 6000SC scintillation counter. Counts per minute (cpm) were averaged for each triplicate dilution. The data were plotted—cpm vs. log(concentration)—using Prism® by GraphPad Software and an IC50 was determined using that program's built-in one-site competition least squares regression function. Ki values were calculated using the equation: Ki=IC50/(1+([3H−PDBu]/Kd)). The Kd of ^3H-PDBu for PKC isoforms was measured separately via saturation binding experiments under identical conditions.

PKC = assay: cell-free PKC binding assay, isoform not given; set-up: species or system human
Method: as §1, §4, §9

[1] = tested on: CD22 surface expression in JB cells; assay: CD22 surface expression assay, AIDS-NHL cell line JB; settings: 1 nM or 10 nM, 48 hours
Method: (§10) AIDS-NHL cell lines were incubated in IF10 medium, consisting of IMDM medium (Life technologies) containing 10% fetal bovine serum (FBS, Omega Scientific), 100 units/mL of penicillin, and 100 μg/ml of streptomycin (Invitrogen). Cells were incubated at 37° C. in 5% CO2.
(§11) Cells were exposed to compound for the either 24 or 48 h before staining and flow cytometric analysis of receptor levels.
(§12) Cells in each well were washed with phosphate buffered saline (PBS) containing 2% FBS, then cells were centrifuged for 9 min at 233 xg and resuspended in 50 μL of a 1:1 dilution of phosphate buffered saline (PBS): Human AB serum (Sigma). […] Stained samples were stored at 4° C. Flow cytometry samples were analyzed using a FACSCelesta (BD Biosciences) flow cytometer and data were analyzed using FlowJo software (version 10).
(§13) Panel C: JB cells were incubated with 1 nM (left hand bars) or 10 nM (right hand bars) of compound for 48 hours. CD22 surface expression was then assayed by flow cytometry (n=6 biological replicates; data presented as mean values ±SE). Panel D: 2F7 cells were incubated with 1 nM (left hand bars) or 10 nM (right hand bars) of compound for 48 hours. CD22 surface expression was then assayed by flow cytometry (n=6 biological replicates; data presented as mean values ±SE).

[2] = tested on: CD22 surface expression in 2F7 cells; assay: CD22 surface expression assay, AIDS-NHL cell line 2F7; settings: 1 nM or 10 nM, 48 hours
Method: as §10, §11, §12, §13

T1 sequence (Q05655 whole entry, canonical isoform): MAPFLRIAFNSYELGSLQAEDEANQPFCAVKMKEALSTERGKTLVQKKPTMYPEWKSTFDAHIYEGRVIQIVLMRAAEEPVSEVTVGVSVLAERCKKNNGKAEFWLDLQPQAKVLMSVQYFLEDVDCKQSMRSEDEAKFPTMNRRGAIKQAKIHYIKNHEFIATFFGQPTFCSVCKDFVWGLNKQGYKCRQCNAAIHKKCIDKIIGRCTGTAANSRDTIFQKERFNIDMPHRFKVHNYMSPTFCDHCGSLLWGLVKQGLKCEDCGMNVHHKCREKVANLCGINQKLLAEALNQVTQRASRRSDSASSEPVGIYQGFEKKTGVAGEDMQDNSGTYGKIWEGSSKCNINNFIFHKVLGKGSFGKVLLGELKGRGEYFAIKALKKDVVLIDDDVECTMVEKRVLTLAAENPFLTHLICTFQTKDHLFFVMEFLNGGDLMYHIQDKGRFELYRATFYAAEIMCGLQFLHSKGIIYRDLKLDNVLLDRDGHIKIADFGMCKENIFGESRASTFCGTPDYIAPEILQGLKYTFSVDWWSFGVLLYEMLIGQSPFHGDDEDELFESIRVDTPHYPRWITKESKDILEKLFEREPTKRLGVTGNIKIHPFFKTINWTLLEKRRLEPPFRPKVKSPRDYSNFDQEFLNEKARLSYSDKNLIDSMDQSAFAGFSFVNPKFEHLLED

SMILES | Ki (PKCδ) [nM] | Ki (PKCα) [nM] | binding affinity to PKC, in words (PKC) | upregulated CD22 surface expression [1] [fold] | upregulated CD22 surface expression [2] [fold]
CCC/C=C/C=C/C(=O)O[C@H]1/C(=C/C(=O)OC)C[C@H]2C[C@H]([C@@H](C)O)OC(=O)C[C@H](O)C[C@@H]3C[C@H](OC(C)=O)C(C)(C)[C@](O)(C[C@@H]4C[C@@H](OC(C)=O)C[C@H](/C=C/C(C)(C)[C@]1(O)O2)O4)O3 [SUW207] | 5.4 | 2 |  |  | 
CCCC=CC=CC(=O)OC1C(=CC(=O)OC)CC2CC(C(C)O)OC(=O)CC(O)CC3CC(OC(C)=O)C(C)(C)C(O)(CC4CC(=CC(=O)OCC)CC(C=CC(C)(C)C1(O)O2)O4)O3 (centres unmarked) [SUW217] | 9.4 | 9.2 |  |  | 
CCCCCC#CC(=O)O[C@H]1/C(=C/C(=O)OC)C[C@H]2C[C@H]([C@@H](C)O)OC(=O)C[C@H](O)C[C@@H]3C[C@H](OC(C)=O)C(C)(C)[C@](O)(C[C@@H]4C[C@@](O)(CO)C[C@H](/C=C/C(C)(C)[C@]1(O)O2)O4)O3 [SUW203] | 4.1 | 1 | single-digit nanomolar affinity |  | 
CCCC=CC=CC(=O)OC1C(=CC(=O)OC)CC2CC(C(C)O)OC(=O)CC(O)CC3CC(OC(C)=O)C(C)(C)C(O)(CC4CC(=CC(=O)OCC)CC(C=CC(C)(C)C1(O)O2)O4)O3 (centres unmarked) [SUW218] | 6.6 | 7.1 |  |  | 
CCC/C=C/C=C/C(=O)O[C@H]1/C(=C/C(=O)OC)C[C@H]2C[C@H]([C@@H](C)O)OC(=O)C[C@H](O)C[C@@H]3C[C@H](OC(C)=O)C(C)(C)[C@](O)(C[C@@H]4C[C@H](OC(C)=O)C[C@H](/C=C/C(C)(C)[C@]1(O)O2)O4)O3 [SUW206] | 1.3 | 1 |  |  | 
CCCCCCCC(=O)O[C@H]1/C(=C/C(=O)OC)C[C@H]2C[C@H]([C@@H](C)O)OC(=O)C[C@H](O)C[C@@H]3C[C@H](OC(C)=O)C(C)(C)[C@](O)(C[C@@H]4C[C@@H](C)C[C@H](/C=C/C(C)(C)[C@]1(O)O2)O4)O3 [SUW226] | 6.6 | 5.8 |  |  | 
C=CCOC(=O)/C=C1/C[C@H]2C[C@]3(O)O[C@H](C[C@@H](O)CC(=O)O[C@@H]([C@@H](C)O)C[C@@H]4C/C(=C\C(=O)OC)[C@H](OC(=O)/C=C/C=C/CCC)[C@@](O)(O4)C(C)(C)/C=C/[C@@H](C1)O2)C[C@H](OC(C)=O)C3(C)C [SUW229] | 1.2 | 1.8 |  | ~2 | ~2
